Experimental data published in paper PMC7179434, “1,2,4-Triazolo[1,5-a]pyrimidines as a Novel Class of Inhibitors of the HIV-1 Reverse Transcriptase-Associated Ribonuclease H Activity” (Molecules, 2020).
“Also recorded” adds a separate entry of the source. Where two headings read alike, the source gives them in different places.

Tests used:
HIV-1 RDDP = tested on: HIV-1 RDDP; design: method as in ref 17-21, 27-29 (per compound as in Figure 1 legend); settings: known allosteric RNHIs; 27-29 (per compound as in Figure 1 legend); cited from earlier work
HIV-1 RNase H = target: HIV-1 RNase H; design: method as in ref 17-25, 27-29 (per compound as in Figure 1 legend); settings: known allosteric RNHIs; 27-29 (per compound as in Figure 1 legend); cited from earlier work
HIV-1 replication = settings: 28 (per compound as in Figure 1 legend); cited from earlier work
HIV-1 RT-associated RDDP = HIV-1 RT-associated RDDP (Human immunodeficiency virus type 1 group M subtype B, UniProt P03366); test: biochemical; assay type: biochemical
[1] = target: HIV-1 RT-associated RNase H (Human immunodeficiency virus type 1 group M subtype B, UniProt P03366); test: biochemical; assay type: biochemical
HIV-2 (ROD strain) = test: Anti-HIV-2 activity in acutely infected MT-4 cells (MTT); assay type: cell-based
HIV-1 (IIIB strain) = assay type: cell-based; settings: acutely infected MT-4 cells
[2] = wt RT, average and standard deviation of three independent experiments in duplicate

| Structure (SMILES) | IC50 (HIV-1 RT-associated RDDP) [µM] | IC50 [1] [µM] | melting point [°C] | further results |
| --- | --- | --- | --- | --- |
| O=C(O)c1ccc(-c2cccc(/C=N/NC(=O)c3ccc(O)c(O)c3)c2)cc1 [Compound 2] |  |  |  | IC50 (HIV-1 RDDP): > 50000 nM; IC50 (HIV-1 RNase H): 400 nM |
| O=C1Nc2ccccc2/C1=N\Nc1nc(-c2ccc(O)c(O)c2)cs1 [Compound 3] |  |  |  | IC50 (HIV-1 RDDP): 1400 nM; IC50 (HIV-1 RNase H): 2000 nM; EC50 (HIV-1 replication) (HIV-1 replication): not active |
| N#Cc1ccc(-c2csc(N/N=C3/C(=O)Nc4ccccc43)n2)cc1 [Compound 4] |  |  |  | IC50 (HIV-1 RDDP): 9800 nM; IC50 (HIV-1 RNase H): 1300 nM |
| Cc1sc2nc(-c3ccc([N+](=O)[O-])cc3)[nH]c(=O)c2c1C [Compound 6] |  |  |  | IC50 (HIV-1 RNase H): 850 nM |
| O=C(Nc1sc2c(c1C(=O)Nc1ccccn1)CCCCC2)c1ccc(O)c(O)c1 [Compound 8] |  |  |  | IC50 (HIV-1 RDDP): 20900 nM; IC50 (HIV-1 RNase H): 840 nM; EC50 (HIV-1 replication) (HIV-1 replication): not active |
| O=c1oc(-c2ccc(O)c(O)c2)nc2sc3ccccc3c12 [Compound 9] |  |  |  | IC50 (HIV-1 RDDP): 2900 nM; IC50 (HIV-1 RNase H): 530 nM; EC50 (HIV-1 replication) (HIV-1 replication): not active |
| CCCCCCCC/C=C\CCCCCCCCNC(=O)/C=C/c1ccc(O)c(O)c1 [Compound 10] |  |  |  | IC50 (HIV-1 RDDP): 2300 nM; IC50 (HIV-1 RNase H): 680 nM |
| CCCCOc1ccc(C(=O)Nc2nc3n(n2)C(c2ccccc2)C=C(C)N3)cc1 (centres unmarked) [Compound 11a] | > 100 | 17.7 ± 2.7 |  |  |
| CCCCc1ccc(C(=O)Nc2nc3n(n2)C(c2ccccc2)C=C(C)N3)cc1 (centres unmarked) [Compound 11b] | > 100 | 13.1 ± 2.2 |  | anti-HIV-2 (ROD strain) activity (HIV-2 (ROD strain)): none of the compounds having RNase H inhibition showed anti-HIV activity at concentrations lower than those cytotoxic; anti-HIV-1 (IIIB strain) activity (HIV-1 (IIIB strain)): none of the compounds having RNase H inhibition showed anti-HIV activity at concentrations lower than those cytotoxic |
| CCCCc1ccc(C(=O)Nc2nc3nc(C)cc(-c4ccccc4)n3n2)cc1 [Compound 12b, 4-Butyl-N-(5-methyl-7-phenyl-[1,2,4]triazolo[1,5-a]pyrimidin-2-yl)benzamide] | > 100 | 12.3 ± 1.5 | 157 to 158 |  |
| Cc1cc(-c2ccccc2)n2nc(NC(=O)c3ccccc3F)nc2n1 [Compound 12c, 2-Fluoro-N-(5-methyl-7-phenyl[1,2,4]triazolo[1,5-a]pyrimidin-2-yl)benzamide] | > 100 | > 100 | 292 to 302 |  |
| Cc1cc(-c2ccccc2)n2nc(NC(=O)c3ccc([N+](=O)[O-])cc3)nc2n1 [Compound 12d, N-(5-Methyl-7-phenyl-[1,2,4]triazolo[1,5-a]pyrimidin-2-yl)-4-nitrobenzamide] | > 100 | > 100 | 290 to 293 |  |
| Cc1cc(-c2ccccc2)n2nc(NC(=O)c3ccc(N)cc3)nc2n1 [Compound 12e, 4-Amino-N-(5-methyl-7-phenyl-[1,2,4]triazolo[1,5-a]pyrimidin-2-yl)benzamide] | > 100 | > 100 | 179 to 202 |  |
| COc1ccc(C(=O)Nc2nc3nc(C)cc(-c4ccccc4)n3n2)cc1OC [Compound 12f, 3,4-Dimethoxy-N-(5-methyl-7-phenyl-[1,2,4]triazolo[1,5-a]pyrimidin-2-yl)benzamide] | > 100 | > 100 | 131 to 151 |  |
| Cc1cc(-c2ccccc2)nc2nc(NC(=O)c3ccccc3F)nn12 [Compound 13c, 2-Fluoro-N-(7-methyl-5-phenyl-[1,2,4]triazolo[1,5-a]pyrimidin-2-yl)benzamide] | > 100 | > 100 | 165 to 169 |  |
| Cc1cc(-c2ccccc2)nc2nc(NC(=O)c3ccc([N+](=O)[O-])cc3)nn12 [Compound 13d, N-(7-Methyl-5-phenyl-[1,2,4]triazolo[1,5-a]pyrimidin-2-yl)-4-nitrobenzamide] | > 100 | 60.1 ± 3.3 | 316 to 318 |  |

| Structure (SMILES) | IC50 (HIV-1 RT-associated RDDP) [µM] | IC50 [1] [µM] | melting point [°C] | further results |
| --- | --- | --- | --- | --- |
| Cc1cc(-c2ccccc2)nc2nc(NC(=O)c3ccc(N)cc3)nn12 [Compound 13e, 4-Amino-N-(7-methyl-5-phenyl-[1,2,4]triazolo[1,5-a]pyrimidin-2-yl)benzamide] | > 100 | > 100 | 318 to 319 |  |
| COc1ccc(C(=O)Nc2nc3nc(-c4ccccc4)cc(C)n3n2)cc1OC [Compound 13f, 3,4-Dimethoxy-N-(7-methyl-5-phenyl-[1,2,4]triazolo[1,5-a]pyrimidin-2-yl)benzamide] | > 100 | > 100 | 175 to 179 |  |
| Cc1cc(-c2ccccc2)nc2nc(NC(=O)c3ccc(O)c(O)c3)nn12 [Compound 13g, 3,4-Dihydroxy-N-(7-methyl-5-phenyl-[1,2,4]triazolo[1,5-a]pyrimidin-2-yl)benzamide] | > 100 | 3.5 ± 1.5 | 298 to 312 | anti-HIV-2 (ROD strain) activity (HIV-2 (ROD strain)): none of the compounds having RNase H inhibition showed anti-HIV activity at concentrations lower than those cytotoxic; anti-HIV-1 (IIIB strain) activity (HIV-1 (IIIB strain)): none of the compounds having RNase H inhibition showed anti-HIV activity at concentrations lower than those cytotoxic |
| CCCCc1ccc(C(=O)Nc2nc3nc(C)cc(C)n3n2)cc1 [Compound 14b, 4-Butyl-N-(5,7-dimethyl-[1,2,4]triazolo[1,5-a]pyrimidin-2-yl)benzamide] |  | > 100 | 175 to 177 | HIV-1 RNaseH IC50 [1, 2]: complete loss of activity |
| Cc1cc(C)n2nc(NC(=O)c3ccccc3F)nc2n1 [Compound 14c, N-(5,7-Dimethyl-[1,2,4]triazolo[1,5-a]pyrimidin-2-yl)-2-fluorobenzamide] | > 100 | > 100 | 195 to 200 |  |
| Cc1cc(C)n2nc(NC(=O)c3ccc([N+](=O)[O-])cc3)nc2n1 [Compound 14d, N-(5,7-Dimethyl-[1,2,4]triazolo[1,5-a]pyrimidin-2-yl)-4-nitrobenzamide] | > 100 | > 100 | 273 to 276 |  |
| Cc1cc(C)n2nc(NC(=O)c3ccc(N)cc3)nc2n1 [Compound 14e, 4-Amino-N-(5,7-dimethyl-[1,2,4]triazolo[1,5-a]pyrimidin-2-yl)benzamide] | > 100 | > 100 | 248 to 258 |  |
| COc1ccc(C(=O)Nc2nc3nc(C)cc(C)n3n2)cc1OC [Compound 14f, N-(5,7-Dimethyl-[1,2,4]triazolo[1,5-a]pyrimidin-2-yl)-3,4-dimethoxybenzamide] | > 100 | > 100 | 190 to 194 |  |
| Cc1cc(C)n2nc(NC(=O)c3ccc(O)c(O)c3)nc2n1 [Compound 14g, N-(5,7-Dimethyl-[1,2,4]triazolo[1,5-a]pyrimidin-2-yl)-3,4-dihydroxybenzamide] | > 100 | 6.23 ± 0.01 | 299 to 301 |  |
| O=C(Nc1nc2nc(-c3ccccc3)cc(-c3ccccc3)n2n1)c1ccc(O)c(O)c1 [Compound 15g, N-(5,7-diphenyl-[1,2,4]triazolo[1,5-a]pyrimidin-2-yl)-3,4-dihydroxybenzamide] | 20.5 ± 4.1 | 1.86 ± 0.54 | 258 to 260 | fold weaker potency against RDDP than against RNase H (HIV-1 RT-associated RDDP; RDDP IC50 vs RNase H IC50): 10 fold; anti-HIV-2 (ROD strain) activity (HIV-2 (ROD strain)): none of the compounds having RNase H inhibition showed anti-HIV activity at concentrations lower than those cytotoxic; anti-HIV-1 (IIIB strain) activity (HIV-1 (IIIB strain)): none of the compounds having RNase H inhibition showed anti-HIV activity at concentrations lower than those cytotoxic |
| COc1ccc(-c2cc(C)nc3nc(N(C(=O)c4ccccc4)C(=O)c4ccccc4)nn23)cc1OC [Compound 16hh, N-benzoyl-N-(7-(3,4-dimethoxyphenyl)-5-methyl-[1,2,4]triazolo[1,5-a]pyrimidin-2-yl)benzamide] | > 100 | 6.74 ± 0.55 |  | HIV-1 RNaseH IC50 [1, 2]: low micromolar range |
| Cc1cc(-c2ccc(O)c(O)c2)n2nc(NC(=O)c3ccccc3)nc2n1 [Compound 17h, N-(7-(3,4-dihydroxyphenyl)-5-methyl-[1,2,4]triazolo[1,5-a]pyrimidin-2-yl)benzamide] | > 100 | 1.13 ± 0.33 | 260 to 263 | anti-HIV-2 (ROD strain) activity (HIV-2 (ROD strain)): none of the compounds having RNase H inhibition showed anti-HIV activity at concentrations lower than those cytotoxic; anti-HIV-1 (IIIB strain) activity (HIV-1 (IIIB strain)): none of the compounds having RNase H inhibition showed anti-HIV activity at concentrations lower than those cytotoxic |
| Cc1cc(-c2ccccc2)n2nc(C(=O)Nc3ccc(O)c(O)c3)nc2n1 [Compound 18g, N-(3,4-Dihydroxyphenyl)-5-methyl-7-phenyl-[1,2,4]triazolo[1,5-a]pyrimidine-2-carboxamide] | > 100 | 0.41 ± 0.005 | 278 to 281 | anti-HIV-2 (ROD strain) activity (HIV-2 (ROD strain)): none of the compounds having RNase H inhibition showed anti-HIV activity at concentrations lower than those cytotoxic; anti-HIV-1 (IIIB strain) activity (HIV-1 (IIIB strain)): did not result in anti-HIV-1 activity in cellular context; also recorded: none of the compounds having RNase H inhibition showed anti-HIV activity at concentrations lower than those cytotoxic |
| Cc1cc(-c2ccccc2)nc2nc(C(=O)Nc3ccc(O)c(O)c3)nn12 [Compound 19g, N-(3,4-Dihydroxyphenyl)-7-methyl-5-phenyl-[1,2,4]triazolo[1,5-a]pyrimidine-2-carboxamide] |  | 43.1 ± 2.1 | 247 to 250 | HIV-1 RNaseH IC50 [1, 2]: markedly decreased anti-RNase H activity |
| CCOC(=O)C(=O)CC(=O)C=Cc1cccn1Cc1ccc(F)cc1 [RDS1643, reference compound] |  |  |  | IC50 ([1]; wt RT, average and standard deviation of three independent experiments in duplicate, read-out: HIV-1 RNaseH IC50): 9 ± 2 µM |
